This note sets out measurements from ChEMBL document CHEMBL3797132, “State of affairs: Design and structure-activity relationships of reversible P2Y12 receptor antagonists” (Bioorg Med Chem Lett, 2016).

Series [1] deals with T1, P2Y purinoceptor 12 (Homo sapiens, UniProt Q9H244). The series is described as follows: Displacement of [3H]-2-Mes-ADP from human P2Y12 receptor. (In a radioligand displacement assay an active substance lowers the binding of a labelled ligand.)
Series [2] is described as follows: Terminal half life in beagle dog at 10 mg/kg, po administered via oral gavage by LC/MS analysis. The format is ADME, organism-based, Canis lupus familiaris. The settings on record: in vivo, read-out: beta t1/2 (converted).
Series [3] concerns the target T1, P2Y purinoceptor 12. The series is described as follows: Displacement of [3H]-2-Mes-ADP from human P2Y12 receptor in platelets by scintillation counter.
The nature of series [4]: Oral bioavailability in rat. The format is ADME, organism-based. The settings on record: in vivo.
Series [5] concerns the target T1, P2Y purinoceptor 12. The series is described as follows: Binding affinity to P2Y12 receptor (unknown origin).
Series [6] can be described thus: Clearance in rat. The format is ADME, organism-based. The settings on record: in vivo.
Series [7] deals with T1, P2Y purinoceptor 12. The series is described as follows: Antagonist activity at P2Y12 receptor (unknown origin) by GTPgammaS binding assay. The format is functional. Background: GTPγS is a poorly hydrolysed GTP analogue; its binding reports G protein activation.
The target in series [8] is T1, P2Y purinoceptor 12. The series is described as follows: Antagonist activity at P2Y12 receptor (unknown origin).
The nature of series [9]: Cmax in beagle dog at 10 mg/kg, po administered via oral gavage by LC/MS analysis. The series is classed as ADME, organism-based, Canis lupus familiaris. The conditions noted are these: in vivo.

T1 sequence (Q9H244 whole entry): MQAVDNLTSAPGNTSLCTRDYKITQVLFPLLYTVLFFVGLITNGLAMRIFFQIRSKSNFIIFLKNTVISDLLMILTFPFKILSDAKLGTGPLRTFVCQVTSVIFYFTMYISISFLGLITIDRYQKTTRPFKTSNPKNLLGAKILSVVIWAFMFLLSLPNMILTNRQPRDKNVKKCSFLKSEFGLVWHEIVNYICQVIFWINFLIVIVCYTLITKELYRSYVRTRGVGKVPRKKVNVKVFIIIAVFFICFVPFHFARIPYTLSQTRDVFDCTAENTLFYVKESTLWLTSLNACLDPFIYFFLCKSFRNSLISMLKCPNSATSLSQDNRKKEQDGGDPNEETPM

Turning to `CCOC(=O)N1CCN(C(=O)[C@H](CCC(=O)O)NC(=O)c2cc(OC(C)(C)C(=O)O)c3ccc(C)cc3n2)CC1`, on P2Y purinoceptor 12 [1], the IC50 (in general, the concentration that gives 50% inhibition) is 5.3 nM. In addition, the half-life in [2] was 7 h.

On to `CNc1cc2[nH]c(=O)n(-c3ccc(NC(=O)NS(=O)(=O)c4ccc(Cl)s4)cc3)c(=O)c2cc1F` [ELINOGREL], for which, at P2Y purinoceptor 12 [3], the half-inhibitory concentration (IC50) was less than 10 nM.

Turning to `CCOC(=O)c1cc(C#N)c(N2CCN(C(=O)NS(=O)(=O)c3ccc(Cl)s3)CC2)nc1C`, the bioavailability (in general, the share of a dose that reaches the circulation, judged against a reference dose that is usually intravenous) in series [4] was 15%. In addition, the figures for the IC50 on P2Y purinoceptor 12 [5] and at P2Y purinoceptor 12 [7] were 40 nM and 70 nM, respectively. The clearance (commonly the rate of elimination divided by the concentration) in [6] was found to be 16 mL/min/kg.

Regarding `CCc1cnc(-c2cc(C#N)c(N3CC(C(=O)NS(=O)(=O)c4ccc(Cl)s4)C3)nc2C)o1`, the IC50 on P2Y purinoceptor 12 [5] was determined as 440 nM; at P2Y purinoceptor 12 [7], 22 nM. Moreover, in [6], the clearance came out at 16 mL/min/kg.

`CCCSc1nc(N[C@@H]2C[C@H]2c2ccc(F)c(F)c2)c2nnn([C@@H]3C[C@H](OCCO)[C@@H](O)[C@H]3O)c2n1` [TICAGRELOR] had an IC50 at P2Y purinoceptor 12 [8] of 5.01 nM.

On to `CCOC(=O)N1CCN(C(=O)[C@H](CCC(=O)O)NC(=O)c2cc(OC(C)(C)C(=O)OCC)c3ccc(C)cc3n2)CC1`, for which, in [9], the Cmax (commonly the maximum level reached in the sampled fluid or tissue) was 14 µM. The compound further had a concentration for half-maximal inhibition (IC50) on P2Y purinoceptor 12 [1] of 29 nM. Also, the half-life in [2] was 0.2 h.

The compound `CCOC(=O)c1cc(C#N)c(N2CC(C(=O)NS(=O)(=O)c3ccc(Cl)s3)C2)nc1C` yielded an IC50 at P2Y purinoceptor 12 [5] of 60 nM. In series [6], the clearance came to 3 mL/min/kg.
